According to ChEMBL document CHEMBL3045636, “Synthesis, characterization, in vitro anticancer activity, and docking of Schiff bases of 4-amino-1,2-naphthoquinone” (Med Chem Res, 2013):
The source made the active and inactive calls. The calls are words filed in the database; no cut-off is given here.

Key:
Assay type in all cases: functional, cell-based
HepG2 [1] = assay: Cytotoxicity against Homo sapiens (human) HepG2 cells assessed as reduction of cell survival after 48 hr by MTT assay; settings: HepG2, 48 h
MG-63 [2] = assay: Cytotoxicity against Homo sapiens (human) MG63 cells assessed as reduction of cell survival after 48 hr by MTT assay; settings: MG-63, 48 h
MCF7 [3] = assay: Cytotoxicity against Homo sapiens (human) MCF7 cells assessed as reduction of cell survival after 48 hr by MTT assay; settings: MCF7, 48 h
MG-63 [4] = assay: Cytotoxicity against Homo sapiens (human) MG63 cells assessed as morphological changes at 10 uM after 48 hr by phase contrast microscopic analysis relative to untreated control
HepG2 [5] = assay: Cytotoxicity against Homo sapiens (human) HepG2 cells assessed as morphological changes at 10 uM after 48 hr by phase contrast microscopic analysis relative to untreated control
MCF7 [6] = assay: Cytotoxicity against Homo sapiens (human) MCF7 cells assessed as morphological changes at 10 uM after 48 hr by phase contrast microscopic analysis relative to untreated control

Row | Compound | IC50 (HepG2 [1]) [µM] | IC50 (MG-63 [2]) [µM] | IC50 (MCF7 [3]) [µM] | Activity (MG-63 [4]) | Activity (HepG2 [5]) | Activity (MCF7 [6])
1 | O=C1C=C(/N=C\c2c[nH]c3ccccc23)c2ccccc2C1=O | 10.1 | 13.8 | 11.3 | – | – | –
2 | O=C1C=C(/N=C\c2ccccc2Cl)c2ccccc2C1=O | 12.1 | 17.1 | 14.3 | – | – | –
3 | NC1=CC(=O)C(=O)c2ccccc21 [4-AMINO-[1,2]NAPHTHOQUINONE] | 15.7 | 24.6 | 14.8 | – | – | –
4 | O=C1C=C(/N=C\c2cccc(Br)c2)c2ccccc2C1=O | 12.2 | 17.3 | 14.6 | – | – | –
5 | O=C1C=C(/N=C\c2ccc(Cl)cc2Cl)c2ccccc2C1=O | 15.7 | 24.3 | 14.7 | – | – | –
6 | Cc1ccc(/C=N\C2=CC(=O)C(=O)c3ccccc32)cc1 | 10.4 | 15.1 | 12.6 | – | – | –
7 | O=C1C=C(N=C2CCCC2)c2ccccc2C1=O | 7.77 | 11.9 | 9.64 | – | – | –
8 | O=C1C=C(N=C2CCCCC2)c2ccccc2C1=O | 7.37 | 11.5 | 9.3 | – | – | –
9 | COc1cc(/C=N\C2=CC(=O)C(=O)c3ccccc32)ccc1O | 6.37 | 9.98 | 8.24 | – | – | –
10 | O=C1C=C(/N=C\C=C\c2ccccc2)c2ccccc2C1=O | 10.6 | 14.8 | 12.9 | – | – | –
11 | O=C1C=CC(=O)c2ccccc21 [NAPHTHOQUINONE] | 15.9 | > 25 | 16.9 | – | – | –
12 | O=C1C=C(/N=C\c2ccc(O)cc2)c2ccccc2C1=O | 8.92 | 13.6 | 11.1 | – | – | –
13 | O=C1C=C(/N=C\c2ccccc2O)c2ccccc2C1=O | 11 | 16.1 | 13.2 | – | – | –
14 | O=C1C=C(/N=C\c2ccccc2[N+](=O)[O-])c2ccccc2C1=O | 11.8 | 17 | 14.4 | – | – | –
15 | O=C1C=C(/N=C\c2ccccc2)c2ccccc2C1=O | 11.5 | 16.2 | 13.8 | – | – | –
16 | O=C1C=C(/N=C\c2ccc([N+](=O)[O-])cc2)c2ccccc2C1=O | 15.6 | 25 | 14.7 | – | – | –
17 | CN(C)c1ccc(/C=N\C2=CC(=O)C(=O)c3ccccc32)cc1 | 7.72 | 12.9 | 10.6 | – | – | –
18 | COc1ccc(/C=N\C2=CC(=O)C(=O)c3ccccc32)cc1OC | 9.15 | 13.3 | 10.9 | – | – | –
19 | COc1cc(/C=N\C2=CC(=O)C(=O)c3ccccc32)cc(OC)c1OC | 5.91 | 9.69 | 7.65 | Active | Active | Active
20 | COc1ccc(/C=N\C2=CC(=O)C(=O)c3ccccc32)cc1 | 9.03 | 12.7 | 11.2 | – | – | –
21 | COc1cccc2c1C(=O)c1c(O)c3c(c(O)c1C2=O)C[C@@](O)(C(=O)CO)C[C@@H]3O[C@H]1C[C@H](N)[C@H](O)[C@H](C)O1 [DOXORUBICIN] | 1.69 | 3.17 | 2.67 | – | – | –
